According to patent US10689339B2, “Pyrrolidine derivatives” (Hoffmann-La Roche Inc., priority 2016, dated 2020):

Target: human Cat S (Homo sapiens (Human), UniProt P25774)
Experiment: Cathepsin enzyme inhibition assay (fluorogenic peptide substrate Z-Val-Val-Arg-AMC)
Assay type: biochemical
Conditions: enzyme 1 nM, substrate 20 μM, pH 6.5
Experimental: Cathepsin Enzyme Inhibition Assay
Enzyme activity is measured by observing the increase in fluorescence intensity caused by cleavage of a peptide substrate containing a fluorophore whose emission is quenched in the intact peptide.
Assay buffer: 100 mM potassium phosphate pH 6.5, EDTA-Na 5 mM, Triton X-100 0.001%, DTT 5 mM.
Enzymes (all at 1 nM): human and mouse Cathepsin S, Cat K, Cat B, Cat L.
Substrate (20 μM): Z-Val-Val-Arg-AMC, except for Cat K which uses Z-Leu-Arg-AMC (both from Bachem).
AMC=7-Amino-4-Methyl-Coumarin.
Excitation 360 nm, Emission 465 nm.
Enzyme is added to the substance dilutions in 96-well microtitre plates and the reaction is started with substrate. […] IC50 are calculated by standard methods.
Inhibition of human Cat S, mouse Cat S, human Cat K, human Cat B, human Cat L and mouse Cat L have been measured separately.

Chain of human Cat S (P25774 115-331): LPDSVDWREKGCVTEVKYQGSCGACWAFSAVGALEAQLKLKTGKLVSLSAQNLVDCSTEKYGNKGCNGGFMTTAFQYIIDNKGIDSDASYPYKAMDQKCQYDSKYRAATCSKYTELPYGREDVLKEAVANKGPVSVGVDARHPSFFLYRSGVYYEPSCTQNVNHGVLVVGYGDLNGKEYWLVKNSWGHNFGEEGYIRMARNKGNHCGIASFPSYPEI

Row | SMILES | IC50 [nM]
1 | Cc1nc(C)c(-c2ccc(S(=O)(=O)[C@@H]3C[C@@H](C(=O)NC4(C#N)CC4)N(C(=O)C4(C(F)(F)F)CC4)C3)c(C(F)(F)F)c2)s1 [Example 48, (2S,4R)-4-[4-(2,4-Dimethyl-thiazol-5-yl)-2-trifluoromethyl-benzenesulfonyl]-1-(1-trifluoromethyl-cyclopropanecarbonyl)-pyrrolidine-2-carboxylic acid (1-cyano-cyclopropyl)-amide] | 1.17
2 | N#CC1(NC(=O)[C@@H]2C[C@@H](S(=O)(=O)c3ccc(-c4ccccc4OC4CC4)cc3C(F)(F)F)CN2C(=O)C2(C(F)(F)F)CC2)CC1 [Example 6, (2S,4R)-4-(2′-Cyclopropoxy-3-trifluoromethyl-biphenyl-4-sulfonyl)-1-(1-trifluoromethyl-cyclopropanecarbonyl)-pyrrolidine-2-carboxylic acid (1-cyano-cyclopropyl)-amide] | 1.06
3 | N#CC1(NC(=O)[C@@H]2C[C@@H](S(=O)(=O)c3ccc(-c4ccccc4CO)cc3)CN2C(=O)C2(C(F)(F)F)CC2)CC1 [Example 43, (2S,4R)—N-(1-cyanocyclopropyl)-4-(2′-(hydroxymethyl)biphenyl-4-ylsulfonyl)-1-(1-(trifluoromethyl)cyclopropanecarbonyl)pyrrolidine-2-carboxamide] | 3.57
4 | Cc1cc(C(F)(F)F)nn1-c1ccc(S(=O)(=O)[C@@H]2C[C@@H](C(=O)NC3(C#N)CC3)N(C(=O)C3(C(F)(F)F)CC3)C2)c(Cl)c1 [Example 18, (2S,4R)-4-(2-chloro-4-(5-methyl-3-(trifluoromethyl)-1H-pyrazol-1-yl)phenylsulfonyl)-N-(1-cyanocyclopropyl)-1-(1-(trifluoromethyl)cyclopropanecarbonyl)pyrrolidine-2-carboxamide] | 0.98
5 | Cc1nncn1-c1ccc(S(=O)(=O)[C@@H]2C[C@@H](C(=O)NC3(C#N)CC3)N(C(=O)C3(C(F)(F)F)CC3)C2)c(C(F)(F)F)c1 [Example 25, (2S,4R)-4-[4-(3-Methyl-[1,2,4]triazol-4-yl)-2-trifluoromethyl-benzenesulfonyl]-1-(1-trifluoromethyl-cyclopropanecarbonyl)-pyrrolidine-2-carboxylic acid (1-cyano-cyclopropyl)-amide] | 3.27
6 | CCOc1cc(F)c(F)cc1-c1ccc(S(=O)(=O)[C@@H]2C[C@@H](C(=O)NC3(C#N)CC3)N(C(=O)C3(C(F)(F)F)CC3)C2)c(C)c1 [Example 42, (2S,4R)—N-(1-cyanocyclopropyl)-4-(2′-ethoxy-4′,5′-difluoro-3-methylbiphenyl-4-ylsulfonyl)-1-(1-(trifluoromethyl)cyclopropanecarbonyl)pyrrolidine-2-carboxamide] | 1.46
7 | Cc1ncnn1-c1ccc(S(=O)(=O)[C@@H]2C[C@@H](C(=O)NC3(C#N)CC3)N(C(=O)C3(C(F)(F)F)CC3)C2)c(C(F)(F)F)c1 [Example 31, (2S,4R)—N-(1-cyanocyclopropyl)-4-(4-(5-methyl-1H-1,2,4-triazol-1-yl)-2-(trifluoromethyl)phenylsulfonyl)-1-(1-(trifluoromethyl)cyclopropanecarbonyl) pyrrolidine-2-carboxamide] | 0.54
8 | COc1ncc(-c2ccc(S(=O)(=O)[C@@H]3C[C@@H](C(=O)NC4(C#N)CC4)N(C(=O)C4(C(F)(F)F)CC4)C3)cc2)cn1 [Example 51, (2S,4R)—N-(1-cyanocyclopropyl)-4-(4-(2-methoxypyrimidin-5-yl)phenylsulfonyl)-1-(1-(trifluoromethyl)cyclopropanecarbonyl)pyrrolidine-2-carboxamide] | 0.882
9 | N#CC1(NC(=O)[C@@H]2C[C@@H](S(=O)(=O)c3ccc(-c4cnc(N)nc4)cc3)CN2C(=O)C2(C(F)(F)F)CC2)CC1 [Example 39, (2S,4R)-4-(4-(2-aminopyrimidin-5-yl)phenylsulfonyl)-N-(1-cyanocyclopropyl)-1-(1-(trifluoromethyl)cyclopropanecarbonyl)pyrrolidine-2-carboxamide] | 0.483
10 | Cc1ncc(-c2ccc(S(=O)(=O)[C@@H]3C[C@@H](C(=O)NC4(C#N)CC4)N(C(=O)C4(C(F)(F)F)CC4)C3)cc2)s1 [Example 50, (2S,4R)—N-(1-cyanocyclopropyl)-4-(4-(2-methylthiazol-5-yl)phenylsulfonyl)-1-(1-(trifluoromethyl)cyclopropanecarbonyl)pyrrolidine-2-carboxamide] | 0.728
11 | N#CC1(NC(=O)[C@@H]2C[C@@H](S(=O)(=O)c3ccc(-n4nccn4)cc3Cl)CN2C(=O)C2(C(F)(F)F)CC2)CC1 [Example 12, (2S,4R)-4-(2-chloro-4-(2H-1,2,3-triazol-2-yl)phenylsulfonyl)-N-(1-cyanocyclopropyl)-1-(1-(trifluoromethyl)cyclopropanecarbonyl)pyrrolidine-2-carboxamide] | 0.56
12 | Cc1ncn(-c2ccc(S(=O)(=O)[C@@H]3C[C@@H](C(=O)NC4(C#N)CC4)N(C(=O)C4(C(F)(F)F)CC4)C3)c(Cl)c2)n1 [Example 14, (2S,4R)-4-(2-chloro-4-(3-methyl-1H-1,2,4-triazol-1-yl)phenylsulfonyl)-N-(1-cyanocyclopropyl)-1-(1-(trifluoromethyl)cyclopropanecarbonyl)pyrrolidine-2-carboxamide] | 0.529
13 | Cc1nc(C)n(-c2ccc(S(=O)(=O)[C@@H]3C[C@@H](C(=O)NC4(C#N)CC4)N(C(=O)C4(C(F)(F)F)CC4)C3)c(Cl)c2)n1 [Example 15, (2S,4R)-4-(2-chloro-4-(3,5-dimethyl-1H-1,2,4-triazol-1-yl)phenylsulfonyl)-N-(1-cyanocyclopropyl)-1-(1-(trifluoromethyl)cyclopropanecarbonyl)pyrrolidine-2-carboxamide] | 0.61
14 | Cc1nnnn1-c1ccc(S(=O)(=O)[C@@H]2C[C@@H](C(=O)NC3(C#N)CC3)N(C(=O)C3(C(F)(F)F)CC3)C2)c(Cl)c1 [Example 9, (2S,4R)-4-(2-chloro-4-(5-methyl-1H-tetrazol-1-yl)phenylsulfonyl)-N-(1-cyanocyclopropyl)-1-(1-(trifluoromethyl)cyclopropanecarbonyl)pyrrolidine-2-carboxamide] | 0.683
15 | N#CC1(NC(=O)[C@@H]2C[C@@H](S(=O)(=O)c3ccc(-c4ccccc4C=O)cc3)CN2C(=O)C2(C(F)(F)F)CC2)CC1 [Example 37, (2S,4R)—N-(1-cyanocyclopropyl)-4-(2′-formylbiphenyl-4-ylsulfonyl)-1-(1-(trifluoromethyl)cyclopropanecarbonyl)pyrrolidine-2-carboxamide] | 1.89

Continued, values first:

Row | IC50 [nM] | SMILES
16 | 223 | Cc1cc(-n2cnc(Cl)n2)ccc1S(=O)(=O)[C@@H]1C[C@@H](C(=O)NC2(C#N)CC2)N(C(=O)C2(C(F)(F)F)CC2)C1 [Example 66, (2S,4R)-4-(4-(3-chloro-1H-1,2,4-triazol-1-yl)-2-methylphenylsulfonyl)-N-(1-cyanocyclopropyl)-1-(1-(trifluoromethyl)cyclopropanecarbonyl)pyrrolidine-2-carboxamide]
17 | 0.564 | Cc1nnn(-c2ccc(S(=O)(=O)[C@@H]3C[C@@H](C(=O)NC4(C#N)CC4)N(C(=O)C4(C(F)(F)F)CC4)C3)c(C(F)(F)F)c2)n1 [Example 57, (2S,4R)-4-[4-(5-Methyl-tetrazol-2-yl)-2-trifluoromethyl-benzenesulfonyl]-1-(1-trifluoromethyl-cyclopropanecarbonyl)-pyrrolidine-2-carboxylic acid (1-cyano-cyclopropyl)-amide]
18 | 0.592 | COc1ncc(-c2ccc(S(=O)(=O)[C@@H]3C[C@@H](C(=O)NC4(C#N)CC4)N(C(=O)C4(C(F)(F)F)CC4)C3)c(C)c2)cn1 [Example 62, (2S,4R)—N-(1-cyanocyclopropyl)-4-(4-(2-methoxypyrimidin-5-yl)-2-methylphenylsulfonyl)-1-(1-(trifluoromethyl)cyclopropanecarbonyl)pyrrolidine-2-carboxamide]
19 | 0.486 | Cc1ncnn1-c1ccc(S(=O)(=O)[C@@H]2C[C@@H](C(=O)NC3(C#N)CC3)N(C(=O)C3(C(F)(F)F)CC3)C2)c(Cl)c1 [Example 52, (2S,4R)-4-(2-chloro-4-(5-methyl-1H-1,2,4-triazol-1-yl)phenylsulfonyl)-N-(1-cyanocyclopropyl)-1-(1-(trifluoromethyl)cyclopropanecarbonyl)pyrrolidine-2-carboxamide]
20 | 0.526 | N#CC1(NC(=O)[C@@H]2C[C@@H](S(=O)(=O)c3ccc(-c4cnn(C(F)F)c4)cc3C(F)(F)F)CN2C(=O)C2(C(F)(F)F)CC2)CC1 [Example 56, (2S,4R)-4-[4-(1-Difluoromethyl-1Hpyrazol-4-yl)-2-trifluoromethyl-benzenesulfonyl]-1-(1-trifluoromethyl-cyclopropanecarbonyl)-pyrrolidine-2-carboxylic acid (1-cyano-cyclopropyl)-amide]
21 | 0.382 | N#CC1(NC(=O)[C@@H]2C[C@@H](S(=O)(=O)c3ccc(-n4ccnn4)cc3C(F)(F)F)CN2C(=O)C2(C(F)(F)F)CC2)CC1 [Example 54, (2S,4R)-4-(4-[1,2,3]Triazol-1-yl-2-trifluoromethyl-benzenesulfonyl)-1-(1-trifluoromethyl-cyclopropanecarbonyl)-pyrrolidine-2-carboxylic acid (1-cyano-cyclopropyl)-amide]
22 | 0.943 | Cc1cc(-c2ccccc2CO)ccc1S(=O)(=O)[C@@H]1C[C@@H](C(=O)NC2(C#N)CC2)N(C(=O)C2(C(F)(F)F)CC2)C1 [Example 59, (2S,4R)—N-(1-cyanocyclopropyl)-4-(2′-(hydroxymethyl)-3-methylbiphenyl-4-ylsulfonyl)-1-(1-(trifluoromethyl)cyclopropanecarbonyl)pyrrolidine-2-carboxamide]
